Data: patent US20090123979A1, “Methods of reducing the inhibitory effect of a tannin on the enzymatic hydrolysis of cellulosic material” (Novozymes, Inc., priority 2007, published 2009)

Columns and labels:
[1] = test system: T1, Cellulolytic Enzyme Composition #1; assay: PCS hydrolysis by Cellulolytic Enzyme Composition #1 with added compounds; assay type: biochemical, Trichoderma reesei; details: for loss in initial rate of PCS hydrolysis / loss in the extent of PCS hydrolysis at day 4: 50 g PCS, 0.25 g enzyme per liter, methyl gallate and ellagic acid 10 mM, tannic acid 1 mM; for effect on hydrolysis of PCS by Cellulolytic Enzyme Composition #1: 1 mM each compound, 43.4 g PCS and 0.25 g enzyme per liter, pH 5.0, 50° C.
T1 construct: other: PASC hydrolysis; mean ± SD; 0.01 g enzyme; Dixon plot linear regression intercept (1/Rate); other: AVICEL; rate from hydrolysis difference (%) at 0 and 6 hours; rate from hydrolysis difference; fused on or other part: The A. oryzae beta-glucosidase is the mature chain secreted behind the Humicola insolens endoglucanase V signal peptide, which is cleaved off
Method: (§1) Corn stover was pretreated at the U.S. Department of Energy National Renewable Energy Laboratory (NREL), […], Colo., USA, using dilute sulfuric acid. The following conditions were used for the pretreatment: 1.4 wt % sulfuric acid at 195° C. for 4.5 minutes. According to limit digestion with excess cellulase enzymes, the water-insoluble solids in the pretreated corn stover (PCS) contained 59.5% cellulose. Prior to use, the PCS was washed with a large volume of deionized water until soluble acid and sugars were removed. The dry weight of the water-washed PCS was 19.16%.
(§2) The effect of a mixture of tannic acid, ellagic acid, epicatechin, and six lignin constituent compounds (4-hydroxyl-2-methylbenzoic acid, vanillin, coniferyl alcohol, coniferyl aldehyde, ferulic acid, and syringaldehyde) was determined on the hydrolysis of PCS by Cellulolytic Enzyme Composition #1 or Cellulolytic Enzyme Composition #2. […] Cellulolytic Enzyme Composition #1 or Cellulolytic Enzyme Composition #2 was added at 0.25 g per liter. Reactions without the addition of the compounds served as controls. The capped tubes were incubated at 50° C. in an INNOVA® 4080 incubator shaker (New Brunswick Scientific Co., Inc., Edison, N.J., USA) at 150 rpm.
(§3) Aliquots of the suspensions, sampled over time, were filtered by centrifugation using a 0.45 μm MULTISCREEN® HV membrane (Millipore, Billerica, Mass., USA) at 2000 rpm for 15 minutes using a SORVALL® RT7 centrifuge (Thermo Fisher Scientific, Waltham, Mass., USA). When not used immediately, the filtered aliquots were frozen at −20° C. Sugar concentrations of the samples diluted in 0.005 M H2SO4 were measured after elution by 0.005 M H2SO4 at a flow rate of 0.4 ml/minute from a 4.6×250 mm AMINEX® HPX-87H column (Bio-Rad, Hercules, Calif., USA) at 65° C. with quantitation by integration of glucose and cellobiose using refractive index detection (CHEMSTATION®, AGILENT® 1100 HPLC, Agilent Technologies, Santa Clara, Calif., USA) calibrated with standards of glucose and cellobiose. The resultant equivalents were used to calculate the percentage of cellulose conversion for each reaction.
(§4) The degree of cellulose conversion to glucose plus cellobiose sugars (conversion, %) was calculated using the following equation:
(§5) Conversion(%)=(glucose+cellobiose×1.053)(mg/ml)×100×162/cellulose(mg/ml)×180)=(glucose+cellobiose×1.053)(mg/ml)×100/(cellulose(mg/ml)×1.111)
(§6) In this equation the factor 1.111 reflects the weight gain in converting cellulose to glucose, and the factor 1.053 reflects the weight gain in converting cellobiose to glucose. Cellulose in PCS was determined by a limit digest of PCS to release glucose and cellobiose.
(§7) Example 30 was repeated except that each compound was tested separately. […] Reactions without the addition of each compound served as controls.
(§8) The effect of OPC or flavonol on the hydrolysis of PCS by Cellulolytic Enzyme Composition #1 or Cellulolytic Enzyme Composition #2 was determined according to the procedure described in Example 30. OPC and flavonol were present at a concentration of 1 mM. Reactions without the addition of the compounds served as controls.
Methyl gallate and ellagic acid were compared at 10 mM to 1 mM tannic acid in the hydrolysis of PCS by Cellulolytic Enzyme Composition #1.

[2] = test system: T2, Cellulolytic Enzyme Composition #2; assay: PCS hydrolysis by Cellulolytic Enzyme Composition #2 with added compounds; assay type: biochemical, Trichoderma reesei; details: 1 mM each compound; 43.4 g PCS and 0.25 g enzyme per liter, pH 5.0, 50° C.
T2 construct: Dixon plot linear regression intercept (1/Rate); other: PCS; rate from hydrolysis difference (%) at 0 and 5 hours; rate from hydrolysis difference (%); Ki (x-intercept of Dixon plot); other: PCS hydrolysis, Cellulolytic Enzyme Composition #2; OPC flavonol-equivalent; Ki expressed as galloyl constituents; oth; fused on or other part: In one component the Humicola insolens endoglucanase V (CEL45A) core is fused in front of the A. oryzae beta-glucosidase
Method: as §1, §2, §3, §4, §5, §6, §7, §8
(§9) The effective inhibitory concentration range for tannic acid and OPC was also determined by the “mini-scale” hydrolysis described in Example 30 with Cellulolytic Enzyme Composition #2. The concentration of tannic acid ranged from 0.1 mM to 1 mM, while the concentration of OPC ranged from 0.1 mM to 10 mM. Reactions without the addition of the tannic compounds served as controls.
(§10) However, prior to the addition of Cellulolytic Enzyme Composition #2, the mixture of PCS or OPC and tannic acid was treated with Aspergillus oryzae tannase (Novozymes A/S, Bagsværd, Denmark) at 10% of the final protein level for 30 minutes. Reactions without addition of the tannic acid, OPC, or tannase served as controls.

[3] = test system: Cellulolytic Enzyme Composition #2; assay: as above; assay type: biochemical, Trichoderma reesei; details: tannase alone, in the absence of tannic acid or OPC
Method: as §1, §2, §3, §4, §5, §6, §7, §8, §9, §10

[4] = Tannase reduction of OPC inhibition of PCS hydrolysis by Cellulolytic Enzyme Composition #2; assay type: biochemical; details: 10 mM OPC; 43 g PCS per liter; tannase at 10% of final protein level for 30 minutes
Method: (§11) Tannase was evaluated for its ability to reduce the inhibitory effect of tannic acid on OPC on PCS hydrolysis by Cellulolytic Enzyme Composition #2.
as §10

[5] = Tannase reduction of tannic acid inhibition of PCS hydrolysis by Cellulolytic Enzyme Composition #1; assay type: biochemical; details: 1 mM tannic acid
Method: To reduce the inhibition, tannase was added at 12.5, 25, and 50 mg per liter (or 0.21, 0.42, and 0.85 μM).

[6] = Tannase reduction of tannic acid inhibition of PCS hydrolysis by Cellulolytic Enzyme Composition #2; assay type: biochemical; details: 1 mM tannic acid; 43 g PCS per liter; tannase at 10% of final protein level for 30 minutes
Method: as §11, §10

COC(=O)c1cc(O)c(O)c(O)c1 [methyl gallate]
loss in initial rate of PCS hydrolysis [1]: ~10% | loss in the extent of PCS hydrolysis at day 4 [1]: ~10%

O=c1c(O)c(-c2ccccc2)oc2ccccc12 [flavonol]
effect on hydrolysis of PCS by Cellulolytic Enzyme Composition #1 [1]: not its constituent flavonol, was inhibitory | effect on hydrolysis of PCS by Cellulolytic Enzyme Composition #2 [2]: not inhibitory

O=c1oc2c(O)c(O)cc3c(=O)oc4c(O)c(O)cc1c4c23 [ellagic acid]
effect on hydrolysis of PCS by Cellulolytic Enzyme Composition #1 [1]: but not its constituent ellagic acid (FIG. 17C), significantly inhibited | loss in initial rate of PCS hydrolysis [1]: ~30% | loss in the extent of PCS hydrolysis at day 4 [1]: ~40%

B1: Aspergillus oryzae tannase: Aspergillus oryzae tannase (Novozymes A/S, Bagsværd, Denmark) (protein, listed as Aspergillus oryzae)
chain: MPSLRRLLPFLAAGSAALASQDTFQGKCTGFADKINLPNVRVNFVNYVPGGTNLSLPDNPTSCGTTSQVVSEDVCRIAMAVATSNSSEITLEAWLPQNYTGRFLSTGNGGLSGCIQYYDLAYTSGLGFATVGANSGHNGTSGEPFYHHPEVLEDFVHRSVHTGVVVGKQLTKLFYEEGFKKSYYLGCSTGGRQGFKSVQKYPNDFDGVVAGAPAFNMINLMSWSAHFYSITGPVGSDTYLSPDLWNITHKEILRQCDGIDGAEDGIIEDPSLCSPVLEAIICKPGQNTTECLTGKQAHTVREIFSPLYGVNGTLLYPRMQPGSEVMASSIMYNGQPFQYSADWYRYVVYENPNWDATKFSVRDAAVALKQNPFNLQTWDADISSFRKAGGKVLTYHGLMDQLISSENSKLYYARVAETMNVPPEELDEFYRFFQISGMAHCSGGDGAYGIGNQLVTYNDANPENNVLMAMVQWVEKGIAPETIRGAKFTNGTGSAVEYTRKHCRYPRRNVYKGPGNYTDENAWQCV
increase in hydrolysis extent of PCS by Cellulolytic Enzyme Composition #2 [3]: approximately 2% | effect of tannase pretreatment on the inhibitory effect of OPC on Cellulolytic Enzyme Composition #2 [4]: significantly reduced | reduction of tannic acid inhibition ([5]; tannase at approximately 12 mg per liter): approximately 50% | reduction of tannic acid inhibition ([5]; tannase at approximately 25 mg per liter): ~100% | effect of tannase pretreatment on the inhibitory effect of tannic acid on Cellulolytic Enzyme Composition #2 [6]: significantly reduced
